Test results published in US8173693B2, “Benzenesulfonamide derivatives and pharmaceutical composition thereof” (Purzer Pharmaceutical Co., Ltd., priority 2010, dated 2012).

Experiments:
[1] = system: Human colorectal adenocarcinoma HT-29 cells; assay: SRB assay; assay type: cell-based; settings: 48 hr
[2] = system: lung carcinoma A549 cells; assay: SRB assay; assay type: cell-based; settings: Homo sapiens, 48 hr
[3] = system: Human breast carcinoma MCF-7 cells; assay: SRB assay; assay type: cell-based; settings: MCF7, 48 hr
Method: (§1) Human Bladder Cancer TSGH cells, Human hepatoblastoma HepG2 cells, Human colorectal adenocarcinoma HT-29 cells, human nasopharyngeal carcinoma KB cells, Human gastric adenocarcinoma AGS cells, Human breast carcinoma MCF-7 cells, lung carcinoma A549 cells, and Human prostate carcinoma PC-3 cells were used in the preliminary cytotoxicity assays of the benzenesulfonamide derivatives of the present invention, and the inhibition activity against the tumor cells was evaluated.
(§2) All cell lines were maintained in RPMI 1640 supplied with 10% fetal bovine serum into 96-well microtiter plates and maintained in a humidified chamber at 37° C. containing 5% CO2. After 24 hr, cell lines in partial wells were fixed in situ with 10% trichloroacetic acid (TCA) to represent a measurement at the time of drug addition (T0). Then, cell lines in other wells were incubated with the benzenesulfonamide derivatives of the present invention for an additional 48 hr, and fixed in situ with 10% TCA to represent a measurement at the time of stopping reaction (Tx). After rinsing the plates with PBS and air-drying, 0.4% sulforhodamine B solution (weight per volume in 1% acetic acid) was added to each well and the plates were incubated for 10 min at room temperature. Unbound sulforhodamine B was removed with 1% acetic acid and the plates were air-dried. Cells bound with sulforhodamine B was subsequently solubilized with 10 mM Tris base (Trizma; Sigma). Cell proliferation was determined by measuring the optical density at 515 nm using a Thermomax microplate reader (Molecular Devices, Sunnyvale, Calif.). The half-inhibition concention (GI50) of the benzenesulfonamide derivatives of the present invention was obtained from the detected optical density.

[4] = system: lung carcinoma A549 cells; assay: SRB assay; assay type: cell-based; settings: Homo sapiens, 48 hr; remark: listed apart in the source
Method: as §1, §2

[5] = system: Human colorectal adenocarcinoma HT-29 cells; assay: SRB assay; assay type: cell-based; settings: 48 hr; remark: listed apart in the source
Method: as §1, §2

[6] = system: Human prostate carcinoma PC-3 cells; assay: SRB assay; assay type: cell-based; settings: Homo sapiens; for GI50: PC-3, 48 h; for IC50: PC-3, 48 hr
Method: as §1, §2

[7] = system: Human gastric adenocarcinoma AGS cells; assay: SRB assay; assay type: cell-based; settings: 48 hr
Method: as §1, §2

[8] = system: Human hepatoblastoma HepG2 cells; assay: SRB assay; assay type: cell-based; settings: 48 hr
Method: as §1, §2

[9] = system: Human gastric adenocarcinoma AGS cells; assay: SRB assay; assay type: cell-based; settings: 48 hr; remark: listed apart in the source
[10] = system: Human hepatoblastoma HepG2 cells; assay: SRB assay; assay type: cell-based; settings: 48 hr; remark: listed apart in the source
[11] = system: Human breast carcinoma MCF-7 cells; assay: SRB assay; assay type: cell-based; settings: MCF7, 48 hr; remark: listed apart in the source
[12] = system: human nasopharyngeal carcinoma KB cells; assay: MTT assay; assay type: cell-based; settings: Homo sapiens, MTT assay; for IC50: KB, 72 hr; for inhibition at 20 µM: KB cells, read-out: Percentage of tumor cells inhibited by 20 μM
Method: as §1
(§3) All cell lines were maintained in RPMI 1640 supplied with 10% fetal bovine serum and maintained in a humidified chamber at 37° C. containing 5% CO2. Then, all cell lines were treated with compounds for 72 hr and subsequently incubated with 0.4 mg/mL of MTT at 37° C. for 2 hr. The medium was removed, and DMSO was added to dissolve MTT precipitate. Cell proliferation was determined by measuring the optical density at 540 nm using a Thermomax microplate reader (Molecular Devices, Sunnyvale, Calif.), and the IC50 values of the benzenesulfonamide derivatives of the present invention were calculated.

[13] = system: Human Bladder Cancer TSGH cells; assay: MTT assay; assay type: cell-based; settings: 72 hr
Method: as §1, §3

[14] = system: Human colorectal adenocarcinoma HT-29 cells; assay: MTT assay; assay type: cell-based; settings: 72 hr
Method: as §1, §3

[15] = system: Human hepatoblastoma HepG2 cells; assay: MTT assay; assay type: cell-based; settings: 72 hr, read-out: IC50 HepaG2
Method: as §1, §3

Structure (SMILES)	melting point	IC50 [12]	inhibition at 20 µM [12]	IC50 [13]	IC50 [14]	IC50 [15]	further results
COc1ccc(S(=O)(=O)Nc2cccc3c2[nH]c2ccccc23)cc1 [Compound 21a, N-(9H-Carbazol-1-yl)-4-methoxybenzenesulfonamide]	204 to 206 °C						IC50 [1]: 0.07 µM; IC50 [2]: 1.7 µM; GI50 [3]: 0.07 µM; GI50 [4]: 0.9 µM; GI50 [5]: 0.03 µM; GI50 [6]: 0.2 µM; IC50 [6]: > 10 µM; GI50 [7]: 0.01 µM; GI50 [8]: 0.04 µM; IC50 [9]: 0.07 µM; IC50 [10]: 0.08 µM; IC50 [11]: 4.4 µM
Cc1ccc(C)c2c1[nH]c1c(N(C)S(=O)(=O)c3ccc(Cl)s3)cccc12 [Compound 15k, 5-Chloro-thiophene-2-sulfonic acid (5,8-dimethyl-9H-carbazol-1-yl)-methyl-amide]	179 to 181 °C						IC50 [1]: 3.9 µM; IC50 [2]: > 10 µM; GI50 [3]: > 10 µM; GI50 [4]: 8.1 µM; GI50 [5]: 0.3 µM; GI50 [6]: 7 µM; IC50 [6]: > 10 µM; GI50 [7]: 7.5 µM; GI50 [8]: 0.7 µM; IC50 [9]: > 10 µM; IC50 [10]: 1.6 µM; IC50 [11]: > 10 µM
Cc1ccc(C)c2c1[nH]c1c(NS(=O)(=O)c3ccc(N)cc3)cccc12 [Compound 6f, 4-Amino-N-(5,8-dimethyl-9H-carbazol-1-yl)benzenesulfonamide]	254 to 255 °C	> 20 µM	34%	39 µM	18.7 µM	16.6 µM	
Cc1ccc(C)c2c1[nH]c1c(N(C)S(=O)(=O)c3cccc(C(F)(F)F)c3)cccc12 [Compound 15j, N-(5,8-Dimethyl-9H-carbazol-1-yl)-N-methyl-3-trifluoromethylbenzenesulfonamide]	192 to 194 °C						IC50 [1]: 10 µM; IC50 [2]: > 10 µM; GI50 [3]: 7.8 µM; GI50 [4]: > 10 µM; GI50 [5]: 5.6 µM; GI50 [6]: > 10 µM; IC50 [6]: > 10 µM; GI50 [7]: 7.8 µM; GI50 [8]: > 10 µM; IC50 [9]: > 10 µM; IC50 [10]: > 10 µM; IC50 [11]: > 10 µM
Cc1ccc(S(=O)(=O)Nc2cccc3c2[nH]c2c(C)ccc(C)c23)cc1 [Compound 6b, N-(5,8-Dimethyl-9H-carbazol-1-yl)-4-methylbenzenesulfonamide]	185 to 186 °C	2.5 µM		2.1 µM	1.1 µM	1.7 µM	
Cc1ccc(S(=O)(=O)Nc2cccc3c(/N=N/c4ccccc4)c[nH]c23)cc1 [Compound 7b, 4-Methyl-N-(3-phenylazo-1H-indol-7-yl)benzenesulfonamide]	212 to 213 °C	> 20 µM	35%	16 µM	17.9 µM	30.8 µM	
COc1ccc(S(=O)(=O)Nc2cccc3cc[nH]c23)cc1 [Compound 5c, N-(1H-Indol-7-yl)-4-methoxybenzenesulfonamide]	161 to 162 °C	3.4 µM		2.4 µM	1.7 µM	1.9 µM	
Cc1ccc(C)c2c1[nH]c1c(NS(=O)(=O)c3cc(Cl)c(Oc4ccc([N+](=O)[O-])cc4Cl)c(Cl)c3)cccc12 [Compound 61, 3,5-Dichloro-4-(2-chloro-4-nitrophenoxy)-N-(5,8-dimethyl-9H-carbazol-1-yl)benzenesulfonamide]	249 °C						
Cc1ccc(C)c2c1[nH]c1c(NC(=O)Nc3ccccc3)cccc12 [Compound 14a, 1-(5,8-Dimethyl-9H-carbazol-1-yl)-3-phenylurea]	300 to 301 °C						
Cc1ccc(C)c2c1[nH]c1c(NS(=O)(=O)c3ccccc3)cccc12 [Compound 6a, N-(5,8-Dimethyl-9H-carbazol-1-yl)benzenesulfonamide]	237 to 238 °C	> 20 µM	32%	160 µM	141 µM	66.7 µM	
Cc1ccc(S(=O)(=O)Nc2cccc3cc[nH]c23)cc1 [Compound 5b, N-(1H-Indol-7-yl)-4-methylbenzenesulfonamide]	159 to 160 °C	> 20 µM	39%	9.4 µM	7.9 µM	7.9 µM	
Cc1ccc(C)c2c1[nH]c1c(NS(=O)(=O)c3ccc(Cl)cc3)cccc12 [Compound 6d, 4-Chloro-N-(5,8-dimethyl-9H-carbazol-1-yl)benzenesulfonamide]	217 to 218 °C	> 20 µM	46%	90 µM	81.6 µM	34.4 µM	
Cc1ccc(C)c2c1[nH]c1c(NS(=O)(=O)c3ccc(S(N)(=O)=O)cc3)cccc12 [Compound 6g, N-(5,8-Dimethyl-9H-carbazol-1-yl)-4-sulfamoylbenzenesulfonamide]	290 to 291 °C	19.1 µM		80.7 µM	124 µM	139 µM	
Cc1ccc(C)c2c1[nH]c1c(NS(=O)(=O)c3ccc([N+](=O)[O-])cc3)cccc12 [Compound 6e, N-(5,8-Dimethyl-9H-carbazol-1-yl)-4-nitrobenzenesulfonamide]	202 to 203 °C	> 20 µM	9%	40.6 µM	17.6 µM	19.8 µM	
Cc1ccc(C)c2c1[nH]c1c(NS(=O)(=O)c3ccccc3[N+](=O)[O-])cccc12 [Compound 6h, N-(5,8-Dimethyl-9H-carbazol-1-yl)-2-nitrobenzenesulfonamide]	202 to 203 °C	> 20 µM	24%	37.2 µM	17 µM	21 µM	
COc1cc(S(=O)(=O)Nc2cccc3c2[nH]c2c(C)ccc(C)c23)cc(OC)c1OC [Compound 6i, N-(5,8-Dimethyl-9H-carbazol-1-yl)-3,4,5-trimethoxybenzenesulfonamide]	205 to 207 °C						
COc1ccc(NC(=O)Nc2cccc3c2[nH]c2c(C)ccc(C)c23)cc1 [Compound 14b, 1-(5,8-Dimethyl-9H-carbazol-1-yl)-3-(4-methoxyphenyl)urea]	262 to 263 °C						
O=[N+]([O-])c1ccccc1S(=O)(=O)Nc1cccc2cc[nH]c12 [Compound 5h, N-(1H-Indol-7-yl)-2-nitrobenzenesulfonamide]	187 to 188 °C	> 20 µM	13%	125 µM	126 µM	87.8 µM	
O=S(=O)(Nc1cccc2cc[nH]c12)c1ccccc1 [Compound 5a, N-(1H-Indol-7-yl)benzenesulfonamide]	178 to 179 °C	> 20 µM	30%	7.5 µM	51.9 µM	44.7 µM	
NS(=O)(=O)c1ccc(S(=O)(=O)Nc2cccc3cc[nH]c23)cc1 [Compound 5g, N-(1H-Indol-7-yl)-4-sulfamoylbenzenesulfonamide]	215 to 216 °C	> 20 µM	12%	37.5 µM	65.9 µM	39.2 µM	
O=S(=O)(Nc1cccc2cc[nH]c12)c1ccc(Cl)cc1 [Compound 5d, 4-Chloro-N-(1H-indol-7-yl)benzenesulfonamide]	163 to 164 °C	20 µM		35.6 µM	19.8 µM	14 µM	
O=[N+]([O-])c1ccc(S(=O)(=O)Nc2cccc3cc[nH]c23)cc1 [Compound 5e, N-(1H-Indol-7-yl)-4-nitrobenzenesulfonamide]	185 to 186 °C	> 20 µM	14%	95.6 µM	113 µM	46.9 µM	
